Target: T1, Met receptor (EGFR/Met chimeric cells, EMR) (Homo sapiens, UniProt P08581)
T1 construct: expressed in transfected cells; the other entry of the earlier key: EGFR (P00533, Epidermal growth factor receptor)
Test: Met Autophosphorylation Assay
Assay type: biochemical
Settings: protocol P.130
Method in brief: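 Met phosphorylation was measured by capture ELISA. Lysates (90 μg/100 μl, HNTG plus 1 mM PMSF) from transiently transfected EGFR/Met chimera (EMR) cells were bound for 60 min at room temperature to wells holding rabbit anti-Met (C-28) on goat anti-rabbit coat. Phosphotyrosine was the read-out.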

T1 sequence (P08581 with tags, fused parts or gaps): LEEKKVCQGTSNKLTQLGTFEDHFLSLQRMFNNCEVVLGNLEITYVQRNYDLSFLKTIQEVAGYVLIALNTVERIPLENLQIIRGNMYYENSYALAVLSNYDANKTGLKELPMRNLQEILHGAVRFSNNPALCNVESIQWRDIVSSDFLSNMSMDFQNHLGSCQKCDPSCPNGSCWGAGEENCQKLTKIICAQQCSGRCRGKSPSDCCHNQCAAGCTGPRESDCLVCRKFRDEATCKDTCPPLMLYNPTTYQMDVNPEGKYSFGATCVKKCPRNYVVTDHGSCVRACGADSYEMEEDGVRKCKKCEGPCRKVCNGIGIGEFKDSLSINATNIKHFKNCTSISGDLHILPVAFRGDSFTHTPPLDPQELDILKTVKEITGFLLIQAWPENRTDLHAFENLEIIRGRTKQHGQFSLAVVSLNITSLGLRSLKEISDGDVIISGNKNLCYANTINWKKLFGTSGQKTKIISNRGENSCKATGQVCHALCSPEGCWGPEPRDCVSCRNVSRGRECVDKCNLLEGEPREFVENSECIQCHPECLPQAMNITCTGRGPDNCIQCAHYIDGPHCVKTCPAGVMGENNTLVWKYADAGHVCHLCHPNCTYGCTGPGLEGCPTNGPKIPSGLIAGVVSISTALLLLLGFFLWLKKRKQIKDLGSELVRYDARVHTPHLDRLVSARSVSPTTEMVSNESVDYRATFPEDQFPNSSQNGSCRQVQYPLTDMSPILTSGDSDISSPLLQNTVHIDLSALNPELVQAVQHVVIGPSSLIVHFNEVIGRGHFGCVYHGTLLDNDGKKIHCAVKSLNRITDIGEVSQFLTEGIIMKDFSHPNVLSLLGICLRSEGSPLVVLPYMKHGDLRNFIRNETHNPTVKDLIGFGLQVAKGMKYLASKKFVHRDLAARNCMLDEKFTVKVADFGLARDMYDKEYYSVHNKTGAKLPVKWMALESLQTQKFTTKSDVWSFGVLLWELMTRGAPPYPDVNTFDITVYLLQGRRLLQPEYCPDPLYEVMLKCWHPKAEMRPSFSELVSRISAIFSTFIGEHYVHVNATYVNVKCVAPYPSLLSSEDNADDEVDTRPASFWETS

SMILES: COc1ccc(Oc2cccc(C=C3C(=O)Nc4c(Br)cc(Br)c(C)c43)c2)cc1 [10739/H08]
- Met Kinase % Inhibition (P.130): 22.9%

SMILES: Cc1c(Br)cc(Br)c2c1C(=Cc1ccoc1)C(=O)N2 [10739/H10]
- Met Kinase % Inhibition (P.130): 62.4%

— US20020026053A1, “Novel 3-(substituted) -2- indolinones compounds and use thereof as inhibitors of protein kinase activity” (priority 1997, published 2002)
